A short description of this data set: Solubility study of AVA-solid dispersions in distilled water. It counts as physicochemical. The note with it: thermodynamic from solid, shaking water bath 48 h. On the procedure: A solubility study for the prepared solid dispersions was conducted separately in distilled water, as described previously, with full details published (34). In screw-capped vials, 10 mL of distilled water was placed, and an excess amount of either the pure drug or the prepared solid dispersions was added. The vials were kept in a shaking water bath, for 48 h, in a thermostatically controlled shaking water bath (Model 1031; GFL Corporation, Burgwedel, Germany). Samples from the vial were obtained and were determined in triplicate using spectrophotometric assay at λmax 285 nm, and the data were expressed as the average ± the standard deviation. The AVA-solid dispersion with the highest water solubility was determined and selected for further investigations. Powder X-ray Diffraction (PXRD)

In brackets after ≈: the same amount, converted by molar mass.

This note sets out measurements from patent US11648205B1, “Buccal formulation of avanafil with enhanced bioavailability and prolonged duration” (King Abdulaziz University, priority 2022, dated 2023).

Turning to `COc1ccc(CN=c2[nH]c(N3CCC[C@H]3CO)ncc2C(=O)NCc2ncccn2)cc1Cl` [AVA, Avanafil], the concentration in solution (solubility at 48 h) came to 3 µg/mL (≈ 6.2 µM).
